In patent US4950663A, “Antihypertensive composition” (priority 1989, dated 1990):
Entries after “also recorded” stand apart in the source; their conditions may differ. Structures can show the parent of a compound that is named as a salt.

Columns and labels:
[1] = Comparative cardiovascular effects (heart rate, mean arterial pressure, coronary blood flow) after intravenous dosing in anesthetized dogs; type: in vivo; conditions: for effect on heart rate (in words): M2 at 1600 μg/kg, diltiazem at 400 μg/kg; for reduction in heart rate: M2 at a dosage 4 times greater than diltiazem
[2] = Elimination and metabolism; type: in vivo
Side effects = type: in vivo; conditions: compositions
Liposolubility = type: physicochemical
[3] = dogs; test of dose required to cause a 50% increase in blood flow; cited from earlier work
[4] = anesthetized dogs, 50 μg/kg intravenous, value at 0 μg/kg: D 59, M2 49
[5] = anesthetized dogs, 50 μg/kg intravenous, value at 0 μg/kg: D 99, M2 99
[6] = anesthetized dogs, 200 μg/kg intravenous, value at 0 μg/kg: D 59, M2 49
[7] = anesthetized dogs, 200 μg/kg intravenous, value at 0 μg/kg: D 99, M2 99
[8] = anesthetized dogs, 200 μg/kg intravenous, value at 0 μg/kg: D 130, M2 127

COc1ccc([C@@H]2Sc3ccccc3N(CCN(C)C)C(=O)[C@@H]2OC(C)=O)cc1 [Diltiazem, (+)-cis-3-(acetyloxy)-5-[2-dimethylamino-ethyl]-2,3-dihydro-2-(4-methoxyphenyl)-l,5-benzothiaz epin-4(5H)one monohydrochloride, reference compound]
Coronary blood flow ([1]; anesthetized dogs, 15 μg/kg intravenous, value at 0 μg/kg: D 59): 67 mL/min
Mean arterial pressure ([1]; anesthetized dogs, 15 μg/kg intravenous, value at 0 μg/kg: D 99): 94 mm Hg
Coronary blood flow [1, 4]: 73 mL/min
Mean arterial pressure [1, 5]: 84 mm Hg
Coronary blood flow [1, 6]: 91 mL/min
Mean arterial pressure [1, 7]: 67 mm Hg
Heart rate [1, 8]: 122 beats/minute
Coronary blood flow ([1]; anesthetized dogs, 400 μg/kg intravenous, value at 0 μg/kg: D 59): 83 mL/min
Mean arterial pressure ([1]; anesthetized dogs, 400 μg/kg intravenous, value at 0 μg/kg: D 99): 58 mm Hg
Maximal reduction in mean arterial pressure ([1]; anesthetized dogs, intravenous): -38%
increase in coronary blood flow ([1]; anesthetized dogs, intravenous): > 50%
effect on heart rate (in words) ([1]; anesthetized dogs, intravenous): significant effect on the heart rate
reduction in heart rate ([1]; anesthetized dogs, intravenous): > 20%

CNCCN1C(=O)C(O)C(c2ccc(OC)cc2)Sc2ccccc21 (stereo not drawn) [M2, N-desmethyl, deacetyl diltiazem]
Coronary blood flow [1, 4]: 53 mL/min
Mean arterial pressure [1, 5]: 96 mm Hg
Heart rate ([1]; anesthetized dogs, 50 μg/kg intravenous, value at 0 μg/kg: D 130, M2 127): 127 beats/minute
Coronary blood flow [1, 6]: 55 mL/min
Mean arterial pressure [1, 7]: 88 mm Hg
Heart rate [1, 8]: 127 beats/minute
Coronary blood flow ([1]; anesthetized dogs, 800 μg/kg intravenous, value at 0 μg/kg: M2 49): 61 mL/min
Mean arterial pressure ([1]; anesthetized dogs, 800 μg/kg intravenous, value at 0 μg/kg: M2 99): 74 mm Hg
Heart rate ([1]; anesthetized dogs, 800 μg/kg intravenous, value at 0 μg/kg: M2 127): 125 beats/minute
Coronary blood flow ([1]; anesthetized dogs, 1600 μg/kg intravenous, value at 0 μg/kg: M2 49): 61 mL/min
Mean arterial pressure ([1]; anesthetized dogs, 1600 μg/kg intravenous, value at 0 μg/kg: M2 99): 63 mm Hg
Heart rate ([1]; anesthetized dogs, 1600 μg/kg intravenous, value at 0 μg/kg: M2 127): 119 beats/minute
Maximal reduction in mean arterial pressure ([1]; anesthetized dogs, intravenous): -36%
coronary blood flow dilation relative to diltiazem ([1]; anesthetized dogs, intravenous): about half that effect; also recorded: about half that of diltiazem
increase in coronary blood flow ([1]; anesthetized dogs, intravenous): > 25%
peripheral dilation capacity relative to diltiazem ([1]; anesthetized dogs, intravenous): equivalent peripheral dilation capacity
effect on heart rate (in words) ([1]; anesthetized dogs, intravenous): devoted of major effect upon heart rate
effect on heart rate (in words) ([1]; anesthetized dogs, intravenous, deacetyl diltiazem): only a slight effect on the heart rate
reduction in heart rate ([1]; anesthetized dogs, intravenous): < 10%
serious cardiovascular adverse effects ([1]; anesthetized dogs, maximal dosage 4 times greater than diltiazem): without serious cardiovascular adverse effects
effect on mean arterial pressure (in words) ([1]; anesthetized dogs, various intravenous dosages): decreases the mean arterial pressure
decrease in heart rate compared with diltiazem ([1]; compared with diltiazem): decrease the heart rate to a lesser degree than diltiazem
intravenous dosages suitable for use as a coronary dilator ([1]; intravenous): 50 to 1600 µg/kg
intravenous dosages useful to decrease blood pressure or mean arterial pressure ([1]; intravenous): 200 to 1600 µg/kg
elimination half life compared with diltiazem ([2]; compared with diltiazem): shorter elimination half life
metabolism by the liver ([2]; in vivo): not metabolized extensively by the liver
side effects compared with diltiazem (Side effects): less side effects than diltiazem
liposolubility compared with diltiazem (Liposolubility): lower liposolubility than diltiazem
effect on coronary blood flow relative to diltiazem [3]: 20%
